Patent publication US20150105252A1, “SUBSTITUTED PYRAZOLES AS HERBICIDES” (E I DU PONT DE NEMOURS AND COMPANY, priority 2013, published 2015)

Legend:
[1] = tested on: blackgrass; assay: Test D preemergence; format: in vivo, Alopecurus myosuroides; details: Preemergence, scale 0 to 100
Summary of the method: (§1)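 Visual injury scored 0–100 (0 none, 100 complete control) against controls 14–21 days after treatment in a controlled growth environment. Chemicals were formulated in a non-phytotoxic solvent mixture containing surfactant, applied to silt loam soil preemergence or to 1- to 4-leaf plants postemergence.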

[2] = tested on: barley, winter; assay: Test D postemergence; format: in vivo, Hordeum vulgare; details: scale 0 to 100
Summary of the method: as §1

[3] = tested on: barley, spring; assay: Test D postemergence; format: in vivo, Hordeum vulgare; details: scale 0 to 100
Summary of the method: as §1

[4] = tested on: foxtail, green; assay: Test D preemergence; format: in vivo, Setaria viridis; details: Preemergence, scale 0 to 100
Summary of the method: as §1

[5] = tested on: oilseed rape; assay: Test D preemergence; format: in vivo, Brassica napus; details: Preemergence, scale 0 to 100
Description: (§2) Seeds of plant species selected from bluegrass (annual bluegrass, Poa annua), blackgrass (Alopecurus myosuroides), canarygrass (littleseed canarygrass, Phalaris minor), chickweed (common chickweed, Stellaria media), galium (catchweed bedstraw, Galium aparine), bromegrass, downy (downy bromegrass, Bromus tectorum), field poppy (Papaver rhoeas), field violet (Viola arvensis), foxtail, green (green foxtail, Setaria viridis), deadnettle (henbit deadnettle, Lamium amplexicaule), ryegrass, Italian (Italian ryegrass, Lolium multiflorum), kochia (Kochia scoparia), lambsquarters (Chenopodium album), oilseed rape (Brassica napus), pigweed (redroot pigweed, Amaranthus retroflexus), chamomile (scentless chamomile, Matricaria inodora), speedwell (bird's-eye speedwell, Veronica persica), barley, spring (spring barley, Hordeum vulgare), wheat, spring (spring wheat, Triticum aestivum), buckwheat, wild (wild buckwheat, Polygonum convolvulus), mustard, wild (wild mustard, Sinapis arvensis), oat, wild (wild oat, Avena fatua), radish, wild (wild radish, Raphanus raphanistrum), windgrass (Apera spica-venti), Russian thistle (Salsola kali), barley, winter (winter barley, Hordeum vulgare), and wheat, winter (winter wheat, Triticum aestivum) were planted into a silt loam soil and treated preemergence with test chemicals formulated in a non-phytotoxic solvent mixture which included a surfactant.
(§3) At the same time, these species were planted in pots containing Redi-Earth® planting medium (Scotts Company, 14111 Scottslawn Road, Marysville, Ohio 43041) comprising spaghnum peat moss, vermiculite, wetting agent and starter nutrients and treated with postemergence applications of the test chemicals formulated in the same manner. Plants ranged in height from 2 to 18 cm (1- to 4-leaf stage). Treated plants and controls were maintained in a controlled growth environment for 14 to 21 days after which time all species were compared to controls and visually evaluated. Plant response ratings, summarized in Table D, are based on a scale of 0 to 100 where 0 is no effect and 100 is complete control. A dash (-) response means no test result.

[6] = tested on: mustard, wild; assay: Test D preemergence; format: in vivo, Sinapis arvensis; details: Preemergence, scale 0 to 100
Summary of the method: as §1

[7] = tested on: field violet; assay: Test D postemergence; format: in vivo, Viola arvensis; details: scale 0 to 100
Description: as §2, §3

[8] = tested on: oat, wild; assay: Test D preemergence; format: in vivo, Avena fatua; details: Preemergence, scale 0 to 100
Summary of the method: as §1

[9] = tested on: foxtail, green; assay: Test D postemergence; format: in vivo, Setaria viridis; details: scale 0 to 100
Description: as §2, §3

[10] = tested on: chamomile; assay: Test D postemergence; format: in vivo, Matricaria inodora; details: scale 0 to 100
Summary of the method: as §1

[11] = tested on: chamomile; assay: Test D preemergence; format: in vivo, Matricaria inodora; details: Preemergence, scale 0 to 100
Summary of the method: as §1

[12] = tested on: galium; assay: Test D preemergence; format: in vivo, Galium aparine; details: Preemergence, scale 0 to 100
Description: as §2, §3

[13] = tested on: speedwell; assay: Test D postemergence; format: in vivo, Veronica persica; details: scale 0 to 100
Summary of the method: as §1

[14] = tested on: kochia; assay: Test D preemergence; format: in vivo, Kochia scoparia; details: Preemergence, scale 0 to 100
Summary of the method: as §1

[15] = tested on: canarygrass; assay: Test D postemergence; format: in vivo, Phalaris minor; details: scale 0 to 100
Description: as §2, §3

[16] = tested on: wheat, winter; assay: Test D preemergence; format: in vivo, Triticum aestivum; details: Preemergence, scale 0 to 100
Summary of the method: as §1

[17] = tested on: wheat, spring; assay: Test D preemergence; format: in vivo, Triticum aestivum; details: Preemergence, scale 0 to 100
Summary of the method: as §1

[18] = tested on: galium; assay: Test D postemergence; format: in vivo, Galium aparine; details: scale 0 to 100
Description: as §2, §3

[19] = tested on: lambsquarters; assay: Test D postemergence; format: in vivo, Chenopodium album; details: scale 0 to 100
Summary of the method: as §1

[20] = tested on: bluegrass; assay: Test D preemergence; format: in vivo, Poa annua; details: Preemergence, scale 0 to 100
Summary of the method: as §1

CCCc1cc(C(=O)NC(C)C)nn1Cc1cc(C(F)(F)F)nn1C [Compound 201]
Plant response rating, Blackgrass ([1]; 31 g ai/ha): 35 | Plant response rating, Blackgrass ([1]; 62 g ai/ha): 90 | Plant response rating, Blackgrass ([1]; 125 g ai/ha): 100 | Plant response rating, Blackgrass ([1]; 250 g ai/ha): 100 | Barley, Winter plant response rating ([2]; Postemergence, 31 g ai/ha): 20 | Barley, Winter plant response rating ([2]; Postemergence, 125 g ai/ha): 25 | Barley, Winter plant response rating ([2]; Postemergence, 250 g ai/ha): 35 | Barley, Winter plant response rating ([2]; postemergence, 62 g ai/ha): 20 | Barley, Spring plant response rating ([3]; Postemergence, 31 g ai/ha): 25 | Barley, Spring plant response rating ([3]; Postemergence, 125 g ai/ha): 25 | Barley, Spring plant response rating ([3]; Postemergence, 250 g ai/ha): 40 | Barley, Spring plant response rating ([3]; postemergence, 62 g ai/ha): 25 | Plant response rating, Foxtail, Green ([4]; 62 g ai/ha): 100 | Plant response rating, Foxtail, Green ([4]; 125 g ai/ha): 100 | Plant response rating, Foxtail, Green ([4]; 250 g ai/ha): 100 | Plant response rating, Oilseed Rape ([5]; 62 g ai/ha): 100 | Plant response rating, Oilseed Rape ([5]; 125 g ai/ha): 100 | Plant response rating, Oilseed Rape ([5]; 250 g ai/ha): 100 | Plant response rating, Mustard, Wild ([6]; 62 g ai/ha): 100 | Plant response rating, Mustard, Wild ([6]; 125 g ai/ha): 100 | Plant response rating, Mustard, Wild ([6]; 250 g ai/ha): 100 | Field Violet plant response rating ([7]; Postemergence, 31 g ai/ha): 55 | Field Violet plant response rating ([7]; Postemergence, 125 g ai/ha): 65 | Field Violet plant response rating ([7]; Postemergence, 250 g ai/ha): 75 | Field Violet plant response rating ([7]; postemergence, 62 g ai/ha): 55 | Plant response rating, Oat, Wild ([8]; 62 g ai/ha): 60 | Plant response rating, Oat, Wild ([8]; 125 g ai/ha): 100 | Plant response rating, Oat, Wild ([8]; 250 g ai/ha): 100 | Foxtail, Green plant response rating ([9]; Postemergence, 31 g ai/ha): 30 | Foxtail, Green plant response rating ([9]; Postemergence, 125 g ai/ha): 40 | Foxtail, Green plant response rating ([9]; Postemergence, 250 g ai/ha): 55 | Foxtail, Green plant response rating ([9]; postemergence, 62 g ai/ha): 30 | Chamomile plant response rating ([10]; Postemergence, 31 g ai/ha): 35 | Chamomile plant response rating ([10]; Postemergence, 125 g ai/ha): 55 | Chamomile plant response rating ([10]; Postemergence, 250 g ai/ha): 65 | Chamomile plant response rating ([10]; postemergence, 62 g ai/ha): 35 | Plant response rating, Chamomile ([11]; 31 g ai/ha): 50 | Plant response rating, Chamomile ([11]; 62 g ai/ha): 100 | Plant response rating, Chamomile ([11]; 125 g ai/ha): 100 | Plant response rating, Chamomile ([11]; 250 g ai/ha): 100 | Plant response rating, Galium ([12]; 62 g ai/ha): 50 | Plant response rating, Galium ([12]; 125 g ai/ha): 100 | Plant response rating, Galium ([12]; 250 g ai/ha): 100 | Speedwell plant response rating ([13]; Postemergence, 31 g ai/ha): 70 | Speedwell plant response rating ([13]; Postemergence, 125 g ai/ha): 70 | Speedwell plant response rating ([13]; Postemergence, 250 g ai/ha): 100 | Speedwell plant response rating ([13]; postemergence, 62 g ai/ha): 70 | Plant response rating, Kochia ([14]; 62 g ai/ha): 100 | Plant response rating, Kochia ([14]; 125 g ai/ha): 100 | Plant response rating, Kochia ([14]; 250 g ai/ha): 100 | Canarygrass plant response rating ([15]; Postemergence, 31 g ai/ha): 15 | Canarygrass plant response rating ([15]; Postemergence, 125 g ai/ha): 20 | Canarygrass plant response rating ([15]; Postemergence, 250 g ai/ha): 60 | Canarygrass plant response rating ([15]; postemergence, 62 g ai/ha): 15 | Plant response rating, Wheat, Winter ([16]; 62 g ai/ha): 40 | Plant response rating, Wheat, Winter ([16]; 125 g ai/ha): 70 | Plant response rating, Wheat, Winter ([16]; 250 g ai/ha): 95 | Plant response rating, Wheat, Spring ([17]; 62 g ai/ha): 55 | Plant response rating, Wheat, Spring ([17]; 125 g ai/ha): 75 | Plant response rating, Wheat, Spring ([17]; 250 g ai/ha): 100 | Galium plant response rating ([18]; Postemergence, 31 g ai/ha): 70 | Galium plant response rating ([18]; Postemergence, 125 g ai/ha): 70 | Galium plant response rating ([18]; Postemergence, 250 g ai/ha): 85 | Galium plant response rating ([18]; postemergence, 62 g ai/ha): 70 | Lambsquarters plant response rating ([19]; Postemergence, 31 g ai/ha): 75 | Lambsquarters plant response rating ([19]; Postemergence, 125 g ai/ha): 90 | Lambsquarters plant response rating ([19]; Postemergence, 250 g ai/ha): 90 | Lambsquarters plant response rating ([19]; postemergence, 62 g ai/ha): 75 | Plant response rating, Bluegrass ([20]; 31 g ai/ha): 20 | Plant response rating, Bluegrass ([20]; 62 g ai/ha): 50 | Plant response rating, Bluegrass ([20]; 125 g ai/ha): 80 | Plant response rating, Bluegrass ([20]; 250 g ai/ha): 95
